Earlier results, collected in patent publication US20050004106A1, “Combinations of GABA modulators and anticonvulsants, and atypical antipsychotics” (Pfizer Inc, priority 2003, published 2005).

Tests used:
[1] = in vivo

half-life [1]: 6 to 7 h
protein binding: extensive
SMILES: Cl.O.O=C1Cc2cc(CCN3CCN(c4nsc5ccccc45)CC3)c(Cl)cc2N1 [ziprasidone, 5-[2-[4-(1,2-benzisothiazol-3-yl)piperazin-1-yl]ethyl]-6-chloroindolin-2-one hydrochloride hydrate]
